Tests used:
spring wheat (TRZAS) = experiment: Postemergence greenhouse trial, % visual injury on spring wheat; assay type: in vivo, Triticum aestivum; settings: alone
Outline: (§1)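 Injury was scored visually (0 = none, 100 = complete kill) 20–22 d after track-sprayer application at 187 L/ha, compared with solvent-sprayed controls. Test plants at the 2–3 true leaf stage; herbicide (g ae/ha) plus cloquintocet-mexyl safener (g ai/ha) in crop-oil-containing spray; expected mixture response by Colby.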

pigweed (AMARE) = experiment: Postemergence greenhouse trial, % visual injury on pigweed; assay type: in vivo, Amaranthus retroflexus; settings: for % visual injury, observed (Ob): AMARE
Outline: as §1

winter rape (BRSNW) = experiment: Postemergence greenhouse trial, % visual injury on winter rape; assay type: in vivo, Brassica napus; settings: for % visual injury, observed (Ob): BRSNW
Outline: (§2)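 Visual injury, 0 (none) to 100 (complete kill), rated 20-22 d after overhead track-sprayer application at 187 L/ha; Colby's equation gave expected mixture responses. Herbicide (g ae/ha) and cloquintocet-mexyl safener (g ai/ha) diluted in aqueous 1.5% v/v Agri-dex, applied to weeds at 2–3 true leaves.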

thistle (CIRAR) = experiment: Postemergence greenhouse trial, % visual injury on thistle; assay type: in vivo, Cirsium arvense; settings: for % visual injury, observed (Ob): CIRAR
Outline: as §2

Russian thistle (SASKR) = experiment: Postemergence greenhouse trial, % visual injury on Russian thistle; assay type: in vivo, Salsola kali; settings: for % visual injury, observed (Ob): SASKR; for % visual injury, Ob: alone
[1] = compound 2 4.380 + CQC-m 0 g/ha
[2] = Amaranthus retroflexus, post-emergence, alone, 35 g/ha, read-out: % visual injury, Ob
[3] = Brassica napus, post-emergence, alone, read-out: % visual injury, Ob
[4] = Cirsium arvense, post-emergence, alone, read-out: % visual injury, Ob

`Nc1c(F)c(-c2ccc3cc[nH]c3c2F)nc(C(=O)OCc2ccccc2)c1Cl` [compound 2] was tested, and the “% visual injury, Ob” value (spring wheat (TRZAS); 35 g/ha) was 15%, the “% visual injury, observed (Ob)” value (pigweed (AMARE); [1]) was 80% and the “% visual injury, observed (Ob)” value (pigweed (AMARE); compound 2 8.75 + CQC-m 0 g/ha) was 95%. The “% visual injury, observed (Ob)” value (pigweed (AMARE); compound 2 17.5 + CQC-m 0 g/ha) was 100%, the pest or weed control at 35 g/ha (pigweed (AMARE); [2]) was 100% and the “% visual injury, observed (Ob)” value (winter rape (BRSNW); [1]) was 84%. The “% visual injury, observed (Ob)” value (winter rape (BRSNW); compound 2 8.75 + CQC-m 0 g/ha) was 88%, the “% visual injury, observed (Ob)” value (winter rape (BRSNW); compound 2 17.5 + CQC-m 0 g/ha) was 55% and the “% visual injury, observed (Ob)” value (winter rape (BRSNW); compound 2 35 + CQC-m 0 g/ha) was 100%. The “% visual injury, observed (Ob)” value (winter rape (BRSNW); compound 2 70 + CQC-m 0 g/ha) was 100%, the plant injury at 35 g/ha (winter rape (BRSNW); [3]) was 100% and the “% visual injury, observed (Ob)” value (thistle (CIRAR); [1]) was 35%. The “% visual injury, observed (Ob)” value (thistle (CIRAR); compound 2 8.75 + CQC-m 0 g/ha) was 63%, the “% visual injury, observed (Ob)” value (thistle (CIRAR); compound 2 17.5 + CQC-m 0 g/ha) was 80% and the “% visual injury, observed (Ob)” value (thistle (CIRAR); compound 2 35 + CQC-m 0 g/ha) was 99%. For the same molecule, the “% visual injury, observed (Ob)” value (thistle (CIRAR); compound 2 70 + CQC-m 0 g/ha) was 99%, the pest or weed control at 35 g/ha (thistle (CIRAR); [4]) was 70% and the “% visual injury, observed (Ob)” value (Russian thistle (SASKR); [1]) was 75%. For the same molecule, the “% visual injury, observed (Ob)” value (Russian thistle (SASKR); compound 2 8.75 + CQC-m 0 g/ha) was 85%, the “% visual injury, observed (Ob)” value (Russian thistle (SASKR); compound 2 17.5 + CQC-m 0 g/ha) was 89% and the “% visual injury, observed (Ob)” value (Russian thistle (SASKR); compound 2 35 + CQC-m 0 g/ha) was 92%. For the same molecule, the “% visual injury, observed (Ob)” value (Russian thistle (SASKR); compound 2 70 + CQC-m 0 g/ha) was 92%.

In the case of `Nc1c(F)c(-c2ccc3cc[nH]c3c2F)nc(C(=O)O)c1Cl` [compound 1], the “% visual injury, Ob” value (spring wheat (TRZAS); 4.375 g/ha) is reported as 13%, the “% visual injury, Ob” value (spring wheat (TRZAS); 8.75 g/ha) is reported as 16% and the “% visual injury, Ob” value (spring wheat (TRZAS); 17.5 g/ha) is reported as 31%. For the same molecule, the “% visual injury, Ob” value (spring wheat (TRZAS); 35 g/ha) was 39%, the “% visual injury, Ob” value (spring wheat (TRZAS); 70 g/ha) was 51% and the “% visual injury, observed (Ob)” value (pigweed (AMARE); compound 1 alone 20 g/ha) was 100%. For the same molecule, the “% visual injury, observed (Ob)” value (pigweed (AMARE); compound 1 alone 40 g/ha) was 100%, the pest or weed control at 4.375 g/ha (pigweed (AMARE); Amaranthus retroflexus, post-emergence, alone, 4.375 g/ha, read-out: % visual injury, Ob) was 81% and the pest or weed control at 8.75 g/ha (pigweed (AMARE); Amaranthus retroflexus, post-emergence, alone, 8.75 g/ha, read-out: % visual injury, Ob) was 91%. For the same molecule, the pest or weed control at 17.5 g/ha (pigweed (AMARE); Amaranthus retroflexus, post-emergence, alone, 17.5 g/ha, read-out: % visual injury, Ob) was 99%, the pest or weed control at 35 g/ha (pigweed (AMARE); [2]) was 100% and the pest or weed control at 70 g/ha (pigweed (AMARE); Amaranthus retroflexus, post-emergence, alone, 70 g/ha, read-out: % visual injury, Ob) was 100%. The “% visual injury, Δ” value (pigweed (AMARE); alone, 35 g/ha) was 0%, the plant injury at 4.375 g/ha (winter rape (BRSNW); Brassica napus, post-emergence, alone, 4.375 g/ha, read-out: % visual injury, Ob) was 79% and the plant injury at 8.75 g/ha (winter rape (BRSNW); Brassica napus, post-emergence, alone, 8.75 g/ha, read-out: % visual injury, Ob) was 84%. It also gave a plant injury at 17.5 g/ha (winter rape (BRSNW); Brassica napus, post-emergence, alone, 17.5 g/ha, read-out: % visual injury, Ob) of 96%, a plant injury at 35 g/ha (winter rape (BRSNW); [3]) of 99% and a plant injury at 70 g/ha (winter rape (BRSNW); Brassica napus, post-emergence, alone, 70 g/ha, read-out: % visual injury, Ob) of 100%. It also gave a pest or weed control at 4.375 g/ha (thistle (CIRAR); Cirsium arvense, post-emergence, alone, 4.375 g/ha, read-out: % visual injury, Ob) of 35%, a pest or weed control at 8.75 g/ha (thistle (CIRAR); Cirsium arvense, post-emergence, alone, 8.75 g/ha, read-out: % visual injury, Ob) of 62% and a pest or weed control at 17.5 g/ha (thistle (CIRAR); Cirsium arvense, post-emergence, alone, 17.5 g/ha, read-out: % visual injury, Ob) of 80%. For the same molecule, the pest or weed control at 35 g/ha (thistle (CIRAR); [4]) was 90%, the pest or weed control at 70 g/ha (thistle (CIRAR); Cirsium arvense, post-emergence, alone, 70 g/ha, read-out: % visual injury, Ob) was 96% and the “% visual injury, Ob” value (Russian thistle (SASKR); 4.375 g/ha) was 66%. For the same molecule, the “% visual injury, Ob” value (Russian thistle (SASKR); 8.75 g/ha) was 70%, the “% visual injury, Ob” value (Russian thistle (SASKR); 17.5 g/ha) was 82% and the “% visual injury, Ob” value (Russian thistle (SASKR); 35 g/ha) was 90%. The “% visual injury, Ob” value (Russian thistle (SASKR); 70 g/ha) was 91%.

Reference: patent US9763445B2, “Safened herbicidal compositions comprising a pyridine carboxylic acid herbicide” (Dow AgroSciences, LLC, priority 2014, dated 2017)
